Broadly, the Kd is the equilibrium constant for the complex coming apart.

Here are results for 4 molecules from paper PMC9488889, “Insight into mode-of-action and structural determinants of the compstatin family of clinical complement inhibitors” (Nature Communications, 2022).

In this test the target is T1, C3b (Homo sapiens, UniProt P01024).
T1 construct: the α’NT, MG6^α−8, anchor, and C-terminal complement (CTC) domains of the α-chain that are all shared between C3c and C3b; purchased Complement Technology (Tyler, TX, USA)
Nature of the test: SPR kinetic binding studies on immobilized C3b. How it is done:
All compstatin analogues were characterized concerning affinity and kinetic profiles by surface plasmon resonance (SPR) using a Biacore T200 instrument (Cytiva, Piscataway, USA). Experiments were run at 25 °C in HBST buffer (10 mM HEPES, 150 mM NaCl, 0.05% Tween-20, pH 7.4). C3b was immobilized on a carboxymethyl dextran hydrogel chip (CMD200; XanTec, Düsseldorf, Germany) using standard amine coupling in sodium acetate buffer pH 4.5 at a flow rate of 10 µl/min. Immobilization densities of 8000 and 4000 resonance units (RU) were achieved on separate flow cells. A reference flow cell was activated with the same method (NHS/EDC). All active sites were inactivated and blocked with ethanolamine. A single cycle approach at a flow rate of 30 µl/min was used for kinetic analysis by injecting five increasing concentrations of each compound (0.5–40 nM) consecutively without regeneration in-between injections. Individual injections within a cycle were 120 s long with a 60 sec dissociation phase between injections. After the highest concentration of each derivative, a dissociation period of 6,000–14,400 sec was added to ensure complete dissociation in absence of suitable regeneration method. […] Signals from the reference cell from an ensemble of buffer blank injections were subtracted to correct for buffer effects and injection artefacts. Kinetic data was processed with the Biacore T200 Software (version 3.1; Cytiva) using a single-cycle evaluation setup by global fitting each data set to a 1:1 Langmuir binding model. Association and dissociation rate constants (ka and kd, respectively) were fitted, and the equilibration constant KD was calculated based on the following equation: KD = kd/ka. Each assay was performed at least twice and in duplicate injections.
On the technique in general: In SPR one partner is held on a chip, and binding of the other changes the refractive index at the surface.

The mark [1] stands for this setting: pH 7.4, read-out: ka, Dataset 1.
Where [2] appears, read: pH 7.4, read-out: ka, Dataset 2.
The mark [3] stands for this setting: pH 7.4, read-out: ka, Dataset 3.
[4] abbreviates: Table 1, amine-reactive immobilized C3b, 25 °C, average±SD of three independent SPR experiments, read-out: KD.
Where [5] appears, read: source data of Table 1, single SPR dataset 1, read-out: KD, Dataset 1.
The mark [6] stands for this setting: source data of Table 1, single SPR dataset 2, read-out: KD, Dataset 2.
The mark [7] stands for this setting: source data of Table 1, single SPR dataset 3, read-out: KD, Dataset 3.

Like-named read-outs stand apart in the source and are kept apart here. Bridge positions count the residues as written; N and C are the ends. Square brackets hold non-standard residues; d marks the D form. Peptide text beside a SMILES is read from it. Trp(1-Me) = Cn1cc(C[C@H](N)C(=O)O)c2ccccc21; NMeI = CC[C@H](C)[C@H](NC)C(=O)O; Sar = CNCC(=O)O

T1 sequence (P01024 23-667 limits assumed): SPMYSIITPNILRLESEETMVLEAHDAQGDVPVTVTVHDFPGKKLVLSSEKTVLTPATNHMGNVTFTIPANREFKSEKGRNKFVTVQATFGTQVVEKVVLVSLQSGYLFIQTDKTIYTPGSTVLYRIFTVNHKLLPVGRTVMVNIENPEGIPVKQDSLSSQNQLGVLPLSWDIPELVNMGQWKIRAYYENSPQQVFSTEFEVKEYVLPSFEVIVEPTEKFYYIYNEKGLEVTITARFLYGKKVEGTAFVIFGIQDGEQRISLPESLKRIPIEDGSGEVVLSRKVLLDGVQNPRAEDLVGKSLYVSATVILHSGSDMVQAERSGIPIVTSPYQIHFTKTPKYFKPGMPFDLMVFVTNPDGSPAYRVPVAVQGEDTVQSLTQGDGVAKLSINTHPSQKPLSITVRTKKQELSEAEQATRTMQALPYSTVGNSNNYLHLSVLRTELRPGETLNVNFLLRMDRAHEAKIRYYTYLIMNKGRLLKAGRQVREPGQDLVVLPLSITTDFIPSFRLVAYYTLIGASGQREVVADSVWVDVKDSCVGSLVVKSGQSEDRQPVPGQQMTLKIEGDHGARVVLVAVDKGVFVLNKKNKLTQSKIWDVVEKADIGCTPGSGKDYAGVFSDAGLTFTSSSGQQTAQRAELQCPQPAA
T1 sequence (P01024 749-1663 limits assumed): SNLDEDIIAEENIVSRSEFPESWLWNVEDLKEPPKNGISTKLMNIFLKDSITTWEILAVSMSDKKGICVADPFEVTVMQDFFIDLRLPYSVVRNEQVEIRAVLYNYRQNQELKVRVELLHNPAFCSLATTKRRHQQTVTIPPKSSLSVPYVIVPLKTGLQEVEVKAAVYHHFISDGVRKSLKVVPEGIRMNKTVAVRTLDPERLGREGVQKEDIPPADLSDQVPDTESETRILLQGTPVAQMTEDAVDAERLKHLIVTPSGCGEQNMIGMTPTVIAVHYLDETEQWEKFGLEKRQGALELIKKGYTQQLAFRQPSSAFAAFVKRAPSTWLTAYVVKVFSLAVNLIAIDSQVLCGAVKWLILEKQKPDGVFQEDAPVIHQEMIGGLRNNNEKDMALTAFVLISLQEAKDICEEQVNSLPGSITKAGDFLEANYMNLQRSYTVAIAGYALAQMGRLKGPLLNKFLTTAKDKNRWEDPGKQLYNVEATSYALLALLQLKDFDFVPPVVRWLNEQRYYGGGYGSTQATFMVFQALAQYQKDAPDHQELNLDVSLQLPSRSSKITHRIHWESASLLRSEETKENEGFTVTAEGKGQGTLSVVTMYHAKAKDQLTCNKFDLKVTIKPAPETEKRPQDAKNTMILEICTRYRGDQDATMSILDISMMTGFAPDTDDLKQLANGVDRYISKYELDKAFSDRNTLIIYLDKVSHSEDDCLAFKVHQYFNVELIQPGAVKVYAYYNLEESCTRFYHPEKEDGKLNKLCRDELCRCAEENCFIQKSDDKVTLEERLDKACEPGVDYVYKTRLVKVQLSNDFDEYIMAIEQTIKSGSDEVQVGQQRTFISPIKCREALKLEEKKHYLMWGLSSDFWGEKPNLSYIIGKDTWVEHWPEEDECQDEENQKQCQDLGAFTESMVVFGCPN

For the molecule `CC[C@H](C)[C@H](NC(=O)[C@H](N)Cc1ccc(O)cc1)C(=O)N[C@H]1CSSC[C@@H](C(=O)N[C@@H](C)C(N)=O)NC(=O)[C@H](CCCNC(=N)N)NC(=O)[C@H](Cc2c[nH]cn2)NC(=O)[C@H](C)NC(=O)CN(C)C(=O)[C@H](Cc2c[nH]c3ccccc23)NC(=O)[C@H](CC(=O)O)NC(=O)[C@H](CCC(N)=O)NC(=O)[C@H](Cc2cn(C)c3ccccc23)NC(=O)[C@H](C(C)C)NC1=O` [Cp40 mI14A] (H-[dY]ICV[Trp(1-Me)]QDW[Sar]AHRCA-NH2; disulfide 3-13), the kon by setting is: (pH 7.4, read-out: ka) 3e+06 ± 1.6e+06 M⁻¹ s⁻¹; under setting [1], 4.23e+06 M⁻¹ s⁻¹; under setting [2], 1.11e+06 M⁻¹ s⁻¹; under setting [3], 3.53e+06 M⁻¹ s⁻¹.

As for `CC[C@H](C)[C@H](NC(=O)[C@H](C)N)C(=O)N[C@H]1CSSC[C@@H](C(=O)N(C)[C@H](C(N)=O)[C@@H](C)CC)NC(=O)[C@H](CCCNC(=N)N)NC(=O)[C@H](Cc2c[nH]cn2)NC(=O)[C@H](C)NC(=O)CN(C)C(=O)[C@H](Cc2c[nH]c3ccccc23)NC(=O)[C@H](CC(=O)O)NC(=O)[C@H](CCC(N)=O)NC(=O)[C@H](Cc2cn(C)c3ccccc23)NC(=O)[C@H](C(C)C)NC1=O` [Cp40 y1A] (H-AICV[Trp(1-Me)]QDW[Sar]AHRC[NMeI]-NH2; disulfide 3-13), the Kd worked out at 3.8 ± 0.5 nM under setting [4], 4.11 nM under setting [5], 4.27 nM under setting [6] and 3.1 nM under setting [7]. Also, the kon came to 400000 M⁻¹ s⁻¹ (pH 7.4, read-out: ka); 470000 M⁻¹ s⁻¹ under setting [1]; 290000 M⁻¹ s⁻¹ under setting [3].

On to `CC[C@H](C)[C@H](NC(=O)[C@@H](C)N)C(=O)N[C@H]1CSSC[C@@H](C(=O)N(C)[C@H](C(N)=O)[C@@H](C)CC)NC(=O)[C@H](CCCNC(=N)N)NC(=O)[C@H](Cc2c[nH]cn2)NC(=O)[C@H](C)NC(=O)CN(C)C(=O)[C@H](Cc2c[nH]c3ccccc23)NC(=O)[C@H](CC(=O)O)NC(=O)[C@H](CCC(N)=O)NC(=O)[C@H](Cc2cn(C)c3ccccc23)NC(=O)[C@H](C(C)C)NC1=O` [Cp40 y1a], for which the kd (Table 1, amine-reactive immobilized C3b, 25 °C, average±SD of three independent SPR experiments) is recorded as 2.3 ± 0.4 10^−3 s^−1. The Kd by setting is: under setting [4], 2.9 ± 0.6 nM; under setting [5], 2.19 nM; under setting [6], 2.99 nM; under setting [7], 3.63 nM. Besides, the kon stood at 800000 ± 100000 M⁻¹ s⁻¹ (pH 7.4, read-out: ka); 840000 M⁻¹ s⁻¹ under setting [1]; 920000 M⁻¹ s⁻¹ under setting [2]; 650000 M⁻¹ s⁻¹ under setting [3]. The “kd, Dataset 1” value (source data of Table 1, single SPR dataset 1) is reported as 1.85 10-3 s-1. Moreover, the “kd, Dataset 2” value (source data of Table 1, single SPR dataset 2) was 2.77 10-3 s-1. For the same molecule, the “kd, Dataset 3” value (source data of Table 1, single SPR dataset 3) was 2.36 10-3 s-1.

`CC[C@H](C)[C@H](NC(=O)[C@H](N)Cc1ccc(O)cc1)C(=O)N[C@H]1CSSC[C@@H](C(N)=O)NC(=O)[C@H](CCCNC(=N)N)NC(=O)[C@H](Cc2c[nH]cn2)NC(=O)[C@H](C)NC(=O)CN(C)C(=O)[C@H](Cc2c[nH]c3ccccc23)NC(=O)[C@H](CC(=O)O)NC(=O)[C@H](CCC(N)=O)NC(=O)[C@H](Cc2cn(C)c3ccccc23)NC(=O)[C@H](C(C)C)NC1=O` [Cp40 ΔmI14] (H-[dY]ICV[Trp(1-Me)]QDW[Sar]AHRC-NH2; disulfide 3-13): the kon (pH 7.4, read-out: ka) was 1.5e+06 ± 200000 M⁻¹ s⁻¹; the kon under setting [1] was found to be 1.41e+06 M⁻¹ s⁻¹; the kon under setting [2] was found to be 1.28e+06 M⁻¹ s⁻¹; the kon under setting [3] came out at 1.8e+06 M⁻¹ s⁻¹.
